Assay results: US8450317B2, “CXCR3 receptor antagonists” (Boehringer Ingelheim International GmbH, priority 2009, dated 2013)

Molecular target: CXCR3 (Macaca fascicularis, UniProt A0A2K5UV19)
Test: functional cellular assay measuring calcium flux in CXCR3 transfected cells (block of CXCR3/IP-10 interaction)
Assay type: cell-based, Cyno
Details: IP-10 induced intracellular calcium flux; Cyno-CHO cells stably expressing recombinant CXCR3 and G-alpha-16; IP-10 at EC80; read-out: IC50
Procedure: Compounds are assessed for the ability to block the interaction of CXCR3 and IP-10 in a functional cellular assay measuring calcium flux in CXCR3 transfected cells.
Cyno-CHO cells, stably expressing recombinant CXCR3 and G-alpha-16 are grown in F12 medium (Mediatech #45000-360) supplemented with 10% (V/V) FBS (Mediatech #35-01500), 1% Geneticin (Invitrogen #10131-027) and 0.2% Zeocin (Invitrogen #R250-05). The cells are spun down and re-suspended in growth media to a concentration of […]. 25 microL of cell suspension is added to each well of a BD-384-well TC treated plate, providing 12,000 cells/well. The plate is incubated at 37° C./5% CO2 overnight. On the day of the assay, the plates are removed, the media is flicked out and 25 microL of Ca-4 dye in assay buffer (HBSS, 10 mM HEPES ph 7.4), containing 2 mM probenacid is added to each well. The cell assay plates are then incubated at 37° C./5% CO2 for one hour.
Test compounds are dissolved in DMSO and diluted to 1.045 mM in DMSO. Just prior to assay, 2.75 microL of appropriately diluted test compound are added to each well of a 384 well plate containing 45 microL of HBSS buffer. After mixing, 5 microL of diluted compound are added to each well of the cell assay plate for a final assay concentration of 10 microM. The plate is incubated at room temperature for 15 min. 10 microL of IP-10 stock solution in HBSS (4× EC80 concentration) are added to each well of the cell assay plate except those cells reserved as blank wells containing buffer only. Intracellular calcium flux is recorded on the HAMAMTSU FDSS6000, using excitation at 480 nm and emission at 540 nm. Data are analyzed using Activity Base software.
In general, the preferred potency range (IC50) of compounds in the above assay is between 1 nM to 3 μM, and the most preferred potency range is 1 nM to 200 nM.

Chain of CXCR3 (A0A2K5UV19 entry or part of it): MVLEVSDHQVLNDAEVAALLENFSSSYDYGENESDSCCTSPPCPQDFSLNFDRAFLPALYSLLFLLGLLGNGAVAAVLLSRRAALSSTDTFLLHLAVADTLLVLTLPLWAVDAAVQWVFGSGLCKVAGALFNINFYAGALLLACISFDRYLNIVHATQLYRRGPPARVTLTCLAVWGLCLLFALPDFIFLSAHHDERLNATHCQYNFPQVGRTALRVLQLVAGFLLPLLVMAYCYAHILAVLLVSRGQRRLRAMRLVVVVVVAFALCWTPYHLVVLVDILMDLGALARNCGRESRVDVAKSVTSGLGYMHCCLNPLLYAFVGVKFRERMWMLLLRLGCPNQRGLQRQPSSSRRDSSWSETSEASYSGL

Compound | IC50
CC1CN(c2ccc(C(F)(F)F)cc2-c2cnc(S(C)(=O)=O)nc2)CCN1C(=O)Cn1ccc2cccnc21 (stereo not shown) [1-(2-methyl-4-{2-[2-(methylsulfonyl)pyrimidin-5-yl]-4-(trifluoromethyl)phenyl}piperazin-1-yl)-2-(1H-pyrrolo[2,3-b]pyridin-1-yl)ethanone] | 30 nM
CC1CN(c2ccccc2-c2cnc(S(C)(=O)=O)nc2)CCN1C(=O)Cn1ccc2cccnc21 (stereo not shown) [1-(2-methyl-4-{2-[2-(methylsulfonyl)pyrimidin-5-yl]phenyl}piperazin-1-yl)-2-(1H-pyrrolo[2,3-b]pyridin-1-yl)ethanone] | 27 nM
CC1CN(c2ccc(C(F)(F)F)cc2-c2cnc(N3CCC(S(C)(=O)=O)CC3)nc2)CCN1C(=O)Cn1c(=O)[nH]c2ccccc21 (stereo not shown) [1-(2-{2-methyl-4-[2-{2-[4-(methylsulfonyl)piperidin-1-yl]pyrimidin-5-yl}-4-(trifluoromethyl)phenyl]piperazin-1-yl}-2-oxoethyl)-1,3-dihydro-2H-benzimidazol-2-one] | 8 nM
CC1CN(c2ccc(C(F)(F)F)cc2-c2cnc(N3CCC(S(C)(=O)=O)CC3)nc2)CCN1C(=O)CN1CCCCC1=O (stereo not shown) [1-(2-{2-methyl-4-[2-{2-[4-(methylsulfonyl)piperidin-1-yl]pyrimidin-5-yl}-4-(trifluoromethyl)phenyl]piperazin-1-yl}-2-oxoethyl)piperidin-2-one] | 11 nM
COc1ncc(-c2ccccc2N2CCN(C(=O)Cn3c(=O)n(C)c4ccccc43)CC2)cn1 [1-(2-{4-[2-(2-Methoxy-pyrimidin-5-yl)-phenyl]-piperazin-1-yl}-2-oxo-ethyl)-3-methyl-1,3-dihydro-benzoimidazol-2-one] | 11 nM
O=C(Cn1c(=O)[nH]c2ccccc21)N1CCN(c2ccccc2-c2cnc(N3CCOCC3)nc2)CC1 [1-(2-{4-[2-(2-Morpholin-4-yl-pyrimidin-5-yl)-phenyl]-piperazin-1-yl}-2-oxo-ethyl)-1,3-dihydro-benzoimidazol-2-one] | 10 nM
COc1ncc(-c2cc(F)ccc2N2CCN(C(=O)Cn3c(=O)[nH]c4ccccc43)CC2)cn1 [1-(2-{4-[4-fluoro-2-(2-methoxypyrimidin-5-yl)phenyl]piperazin-1-yl}-2-oxoethyl)-1,3-dihydro-2H-benzimidazol-2-one] | 13 nM
COc1ncc(-c2cc(F)ccc2N2CCN(C(=O)CN3CCCCC3=O)CC2)cn1 [1-(2-{4-[4-fluoro-2-(2-methoxypyrimidin-5-yl)phenyl]piperazin-1-yl}-2-oxoethyl)piperidin-2-one] | 174 nM
Cc1cc(C)n(CC(=O)N2CCN(c3ccccc3-c3cnc(N4CC(C)OC(C)C4)nc3)CC2)n1 (stereo not shown) [1-(4-{2-[2-(2,6-Dimethyl-morpholin-4-yl)-pyrimidin-5-yl]-phenyl}-piperazin-1-yl)-2-(3,5-dimethyl-pyrazol-1-yl)-ethanone] | 6 nM
Cc1cc(C)n(CC(=O)N2CCN(c3ccccc3-c3cnc(N4CC(F)(F)C4)nc3)CC2)n1 [1-(4-{2-[2-(3,3-Difluoro-azetidin-1-yl)-pyrimidin-5-yl]-phenyl}-piperazin-1-yl)-2-(3,5-dimethyl-pyrazol-1-yl)-ethanone] | 7 nM
Cc1cc(C)n(CC(=O)N2CCN(c3ccccc3-c3cnc(N4CCCC(F)(F)C4)nc3)CC2)n1 [1-(4-{2-[2-(3,3-Difluoro-piperidin-1-yl)-pyrimidin-5-yl]-phenyl}-piperazin-1-yl)-2-(3,5-dimethyl-pyrazol-1-yl)-ethanone] | 9 nM
Cc1cc(C)n(CC(=O)N2CCN(c3ccccc3-c3cnc(N4CC(C)CC(C)C4)nc3)CC2)n1 (stereo not shown) [1-(4-{2-[2-(3,5-Dimethyl-piperidin-1-yl)-pyrimidin-5-yl]-phenyl}-piperazin-1-yl)-2-(3,5-dimethyl-pyrazol-1-yl)-ethanone] | 14 nM
Cc1cc(C)n(CC(=O)N2CCN(c3ccccc3-c3cnc(N4CCC(F)(F)CC4)nc3)CC2)n1 [1-(4-{2-[2-(4,4-Difluoro-piperidin-1-yl)-pyrimidin-5-yl]-phenyl}-piperazin-1-yl)-2-(3,5-dimethyl-pyrazol-1-yl)-ethanone] | 22 nM
